Test results reported in patent publication US8507545B2, “Cytotoxic T cell activator comprising EP4 agonist” (National University Corporation, Hamamatsu University …, priority 2007, dated 2013).

Columns and labels:
TRP-2-specific CTLs = experiment: Activation of cytotoxic T cells in isolated Langerhans cells co-cultured with lymphocytes; type: cell-based, C57BL/6(B6) mouse
Procedure: A given area of an auricle epidermal sheet was removed from the corneal layer of one auricle of each C57BL/6(B6) mouse, and trypsinized to yield an epidermal cell suspension. The epidermal cell suspension obtained was subjected to panning using an antibody specific for I-A^b antigen to isolate epidermal Langerhans cells. After each test substance (TRP-2 (concentration; 10 μg/mL) and Compound A-(1) (1 μM)) was added to the Langerhans cells isolated (cell density; 10^5 cells per mL), the cells were cultured with a medium (cRPMI1640 medium; Sigma-Aldrich Japan). Half a day later, the cells were co-cultured with splenocytic lymphocytes isolated from […] for 7 days. Subsequently, by a flowcytometric analysis (FACScaliber; Becton, Dickinson and Company.) using a tetramer (Medical & Biological Laboratories Co., Ltd.), the frequency of TRP-2-specific CTLs was determined relative to the total number of mononucleocytes in the medium as 100. Three experimental groups were established: (1) a group with no treatment, (2) a group with the addition of TRP-2, and (3) a group with the addition of both TRP-2 and Compound A-(1).

B16 melanoma cells = experiment: Melanoma growth suppressing action; type: in vivo, B6 mouse; settings: for tumor diameter compared with the experimental group (1): FIG. 1
Procedure: The corneal layer was removed from the right auricle of each B6 mouse by TS in the same manner as Example 1, and test substances (TRP-2 and Compound A-(1)) were applied there; 2 weeks later, the left auricle was treated in the same manner. The test substances applied to both ears were used in the same combination; TRP-2 was applied at 10 μg for one side of each auricle, and Compound A-(1) was applied at 20 μl, of 100 μM solution for one side of each auricle. Four days after the above-described treatment, each mouse received 2×10^5 B16 melanoma cells (RIKEN's Cell Bank) by subcutaneous transplantation, and examined for tumor growth. Experimental groups were established as in Example 1(1) (5 animals in each group).
Tumor diameter (mm), as an index of tumor growth, was measured in each group at various days after inoculation of B16 melanoma cells; the results are shown in FIG. 1.

[1] = TS followed by application of Compound A-(1) alone, experimental group (3)
[2] = TS followed by application of TRP-2 and Compound A-(1), experimental group (4)

## COCc1cccc(C[C@H](O)/C=C/[C@H]2[C@H](O)CC(=O)[C@@H]2SCCCSCC(=O)O)c1 [Compound A-(1), 11α,15α,-dihydroxy-9-oxo-16-(3-methoxymethylphenyl)-17,18,19,20-tetranol-3,7-dithiaprost-13E-enoic acid]
TRP-2-specific CTLs; addition of both TRP-2 (10 μg/mL) and Compound A-(1) (1 μM), 7 days co-culture, relative to total mononucleocytes in the medium as 100
  Ratio of TRP-2-specific CTLs: 6.6
TRP-2-specific CTLs; isolated Langerhans cells
  action of inducing TRP-2-specific CTLs compared with TRP-2: equivalent
B16 melanoma cells; [1]
  tumor growth rates: decreased
  tumor diameter compared with the experimental group (1): smaller
B16 melanoma cells; [2]
  tumor growth rates: decreased
  tumor diameter compared with the experimental group (1): smaller
B16 melanoma cells; TS followed by application of TRP-2 and Compound A-(1), experimental group (4), 5 animals
  take of B16 melanoma cells: did not take in any animals
